The test system of one data set is serum TNFα. The note with it: mice, oral administration of 1.0 to 10 mg/kg; cited from earlier work.
Data set [1] can be described thus: Solubility of Givinostat (ITF2357) in water, buffers and aqueous vehicles. In kind it is physicochemical. The note with it: phosphate buffer.
Assay in data set [2]: as above
The class given is physicochemical. As to the method: Solubility of Givinostat was tested in aqueous vehicles at pH 6, containing Phosphate buffer. Tween 20 as wetting agent and either Sorbitol or Sucrose (40% w/v). To this aim, an amount of Givinostat sufficient to ensure saturation was mixed with 15 mL of each vehicle in separate vials. These vials were shaken at 25° C.±PC for at least 24 hours in order to obtain equilibrium. The saturated solution was then separated from the excess solid by filtration and Givinostat (ITF2357) was quantitated in the filtrate by UV-Vis spectrophotometric technique.
In table 4 solubility value determined on ITF 2357 saturated solution in different buffer at pH 4.5 are reported.
Solubility of ITF2357 determined in suspension vehicles having compositions as described in Example 1, thus containing Sorbitol at 40% w/v and Tartrate buffer, at different pH (pH range from 4 to 7 adjusted with Tartaric Acid or Sodium Hydroxide) are shown in Table 5.

Another data set deals with interferon-γ (IFNγ). The note with it: LPS-stimulated cultured human PBMCs; read-out: concentration reducing by 50% the production of IFNγ; cited from earlier work.
Data set [3] can be described thus: Chemical stability of ITF2357 solutions (degradation on storage). The class given is physicochemical. As to the method: For example, solubility of ITF2357 in phosphate buffers at pH 2, 4.5, 6 and 8 is about 1.13-2.88-0.77 and 0.05 mg/mL respectively. Thus, it is technically possible to prepare aqueous solutions of ITF2357, having concentrations, e.g., between 0.02 and 0.3% w/v, intended for oral administration. However, because of the poor Givinostat solubility, large volume of an oral solution formulation would need to be administered to allow administration of effective drug doses and this pose patient compliance issues. […] In a preferred embodiment, the suspension according to the invention further comprising at least a buffering agent.

For another data set, the system named is IL-1β. The note with it: LPS-stimulated cultured human PBMCs; read-out: concentration reducing by 50% the release of intracellular interleukin IL-1β; cited from earlier work.
In a further data set the test system is serum IFNγ. The note with it: mice, oral administration of 1.0 to 10 mg/kg; cited from earlier work.
For data set [4] the following is noted: at 20° C.; cited from earlier work.

We go through 2 compounds from patent US10688047B2, “Physically and chemically stable oral suspensions of givinostat” (ITALFARMACO SPA, priority 2015, dated 2020).

In brackets after ≈: the same amount, converted by molar mass. Like-named read-outs stand apart in the source and are kept apart here.

`CCN(CC)Cc1ccc2cc(COC(=O)Nc3ccc(C(=O)NO)cc3)ccc2c1` [ITF2357, Givinostat]: the “reduction of LPS-induced serum TNFα” value with serum TNFα is on record as “more than 50%”. The solubility was about 1130 µg/mL (≈ 2680 µM) in data set [1] (pH 2, aqueous buffer, phosphate buffer pH 2); about 770 µg/mL (≈ 1830 µM) in data set [1] (pH 6, aqueous buffer, phosphate buffer pH 6); 5100 µg/mL (≈ 12100 µM) in data set [2] (acetate buffer, pH 4.5, aqueous buffer, thermodynamic from solid, Acetate buffer pH 4.5, read-out: ITF2357 solubility); 2340 µg/mL (≈ 5550 µM) in data set [2] (aqueous vehicle, 25 °C, pH 6, aqueous with cosolvent or surfactant or cyclodextrin, thermodynamic from solid, Phosphate buffer pH 6, Tween 20, Sorbitol 10% (w/v), 25° C., read-out: ITF2357 Solubility); 2110 µg/mL (≈ 5000 µM) in data set [2] (aqueous vehicle, 25 °C, pH 6, aqueous with cosolvent or surfactant or cyclodextrin, thermodynamic from solid, Phosphate buffer pH 6, Tween 20, Sorbitol 20% (w/v), 25° C., read-out: ITF2357 Solubility); 2020 µg/mL (≈ 4790 µM) in data set [2] (aqueous vehicle, 25 °C, pH 6, aqueous with cosolvent or surfactant or cyclodextrin, thermodynamic from solid, Phosphate buffer pH 6, Tween 20, Sorbitol 30% (w/v), 25° C., read-out: ITF2357 Solubility). Also, the solubility is 1930 µg/mL (≈ 4580 µM) in data set [2] (aqueous vehicle, 25 °C, pH 6, aqueous with cosolvent or surfactant or cyclodextrin, thermodynamic from solid, Phosphate buffer pH 6, Tween 20, Sorbitol 40% (w/v), 25° C., read-out: ITF2357 Solubility); 3880 µg/mL (≈ 9190 µM) in data set [2] (aqueous vehicle, 25 °C, pH 6, aqueous with cosolvent or surfactant or cyclodextrin, thermodynamic from solid, Phosphate buffer pH 6, Tween 20, Sucrose 40% (w/v), 25° C., read-out: ITF2357 Solubility); 2880 µg/mL (≈ 6830 µM) in data set [2] (phosphate buffer pH 4.5); about 2880 µg/mL (≈ 6830 µM) in data set [2] (phosphate buffer, pH 4.5, aqueous buffer, thermodynamic from solid, phosphate buffer pH 4.5, read-out: solubility); about 50 µg/mL (≈ 119 µM) in data set [2] (phosphate buffer, pH 8, aqueous buffer, phosphate buffer pH 8, read-out: solubility); about 2500 µg/mL (≈ 5930 µM) in data set [2] (purified water, water, purified water, read-out: solubility). The solubility in data set [2] (suspension vehicle, pH 4, aqueous with cosolvent or surfactant or cyclodextrin, thermodynamic from solid, Tartrate buffer pH = 4.0, Tween 20, Sorbitol 40% w/v, read-out: ITF2357 solubility) worked out at 210 µg/mL (≈ 498 µM); in data set [2] (suspension vehicle, pH 5, aqueous with cosolvent or surfactant or cyclodextrin, thermodynamic from solid, Tartrate buffer pH = 5.0, Tween 20, Sorbitol 40% w/v, read-out: ITF2357 solubility), 150 µg/mL (≈ 356 µM); in data set [2] (suspension vehicle, pH 5.5, aqueous with cosolvent or surfactant or cyclodextrin, thermodynamic from solid, Tartrate buffer pH = 5.5, Tween 20, Sorbitol 40% w/v, read-out: ITF2357 solubility) it was 160 µg/mL (≈ 380 µM); in data set [2] (suspension vehicle, pH 6, aqueous with cosolvent or surfactant or cyclodextrin, thermodynamic from solid, Tartrate buffer pH = 6.0, Tween 20, Sorbitol 40% w/v, read-out: ITF2357 solubility), 150 µg/mL (≈ 356 µM); in data set [2] (suspension vehicle, pH 6.5, aqueous with cosolvent or surfactant or cyclodextrin, thermodynamic from solid, Tartrate buffer pH = 6.5, Tween 20, Sorbitol 40% w/v, read-out: ITF2357 solubility), 160 µg/mL (≈ 380 µM); in data set [2] (suspension vehicle, pH 7, aqueous with cosolvent or surfactant or cyclodextrin, thermodynamic from solid, Tartrate buffer pH = 7.0, Tween 20, Sorbitol 40% w/v, read-out: ITF2357 solubility) it was 150 µg/mL (≈ 356 µM). For the same compound, in data set [2] (tartrate buffer, pH 4.5, aqueous buffer, thermodynamic from solid, Tartrate buffer pH 4.5, read-out: ITF2357 solubility), the solubility stood at 230 µg/mL (≈ 546 µM). Further, the IC50 in the data set with interferon-γ (IFNγ) is 25 nM; in the data set on IL-1β, 12 nM. The degradation of solution result in data set [3] (phosphate buffer pH 2, 6 days at 40° C.) is reported as “about 6.3%”; in data set [3] (phosphate buffer pH 4.5, 6 days at 40° C.) it was about 0.8%; in data set [3] (phosphate buffer pH 6, 6 days at 40° C.), about 0.5%; in data set [3] (phosphate buffer pH 8, 6 days at 40° C.) it was about 2.1%. Further, the “reduction of LPS-induced serum IFNγ” value in the data set with serum IFNγ is given as “more than 50%”.
On to `OC[C@H]1O[C@@](CO)(O[C@H]2O[C@H](CO)[C@@H](O)[C@H](O)[C@H]2O)[C@@H](O)[C@@H]1O` [Sucrose], for which the “parts of water in which 1 part dissolves” value in data set [4] is recorded as 0.3 parts of water.

For orientation: solubility means the dissolved amount per volume that the medium holds.
